Experimental findings from patent US20250024871A1, “AMIDE COMPOUNDS AND THEIR USE AS FLAVOR MODIFIERS” (Firmenich Incorporated, priority 2021, published 2025) are described below.

The test concerns the target T1, T1R umami taste receptor (Homo sapiens, UniProt Q7RTX0+Q7RTX1).
T1 sequence (Q7RTX1 21-841): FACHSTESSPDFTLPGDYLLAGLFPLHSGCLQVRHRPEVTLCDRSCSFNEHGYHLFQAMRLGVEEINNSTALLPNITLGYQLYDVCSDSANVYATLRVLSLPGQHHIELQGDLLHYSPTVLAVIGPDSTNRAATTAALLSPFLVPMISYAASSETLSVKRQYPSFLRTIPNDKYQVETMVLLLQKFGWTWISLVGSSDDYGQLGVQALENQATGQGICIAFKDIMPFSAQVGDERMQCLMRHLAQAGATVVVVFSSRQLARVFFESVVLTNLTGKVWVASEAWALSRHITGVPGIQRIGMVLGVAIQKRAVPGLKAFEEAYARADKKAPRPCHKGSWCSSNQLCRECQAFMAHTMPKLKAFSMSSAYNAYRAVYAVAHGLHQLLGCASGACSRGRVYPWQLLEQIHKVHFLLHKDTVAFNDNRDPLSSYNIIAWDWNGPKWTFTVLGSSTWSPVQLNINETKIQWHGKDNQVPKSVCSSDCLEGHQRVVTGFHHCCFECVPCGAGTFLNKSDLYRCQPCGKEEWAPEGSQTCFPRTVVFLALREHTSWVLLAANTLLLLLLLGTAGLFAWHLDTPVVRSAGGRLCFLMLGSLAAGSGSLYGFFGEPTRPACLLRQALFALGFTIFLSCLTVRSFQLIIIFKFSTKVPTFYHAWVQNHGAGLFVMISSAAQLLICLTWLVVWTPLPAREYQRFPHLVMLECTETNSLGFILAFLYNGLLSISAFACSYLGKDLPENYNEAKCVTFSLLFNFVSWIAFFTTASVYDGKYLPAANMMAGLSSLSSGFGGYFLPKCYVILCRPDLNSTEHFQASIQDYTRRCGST
T1 sequence (Q7RTX0 21-852): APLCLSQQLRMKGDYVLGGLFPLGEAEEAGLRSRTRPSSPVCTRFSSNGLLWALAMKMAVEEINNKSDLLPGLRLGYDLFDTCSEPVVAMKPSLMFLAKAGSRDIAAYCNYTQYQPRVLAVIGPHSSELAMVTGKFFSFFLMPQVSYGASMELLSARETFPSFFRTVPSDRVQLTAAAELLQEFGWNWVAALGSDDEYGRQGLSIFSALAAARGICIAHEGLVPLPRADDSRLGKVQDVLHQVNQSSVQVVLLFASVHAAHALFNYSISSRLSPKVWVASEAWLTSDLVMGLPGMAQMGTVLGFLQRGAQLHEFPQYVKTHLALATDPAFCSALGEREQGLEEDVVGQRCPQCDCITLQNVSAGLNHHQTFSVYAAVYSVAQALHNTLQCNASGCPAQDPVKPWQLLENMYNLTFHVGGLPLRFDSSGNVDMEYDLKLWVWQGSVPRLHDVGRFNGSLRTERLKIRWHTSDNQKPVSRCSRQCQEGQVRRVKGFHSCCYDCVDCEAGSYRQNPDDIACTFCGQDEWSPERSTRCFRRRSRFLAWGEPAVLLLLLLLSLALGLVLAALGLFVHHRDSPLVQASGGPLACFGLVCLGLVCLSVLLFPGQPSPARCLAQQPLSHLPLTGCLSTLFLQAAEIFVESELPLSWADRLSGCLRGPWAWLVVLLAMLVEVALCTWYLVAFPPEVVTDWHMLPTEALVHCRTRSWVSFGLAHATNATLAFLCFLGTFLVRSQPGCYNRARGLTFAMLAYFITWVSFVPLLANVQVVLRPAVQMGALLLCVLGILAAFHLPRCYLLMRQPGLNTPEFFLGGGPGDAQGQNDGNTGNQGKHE
Put plainly: in vitro cell-based assay having cells that express the T1R umami taste receptor (enhancement of MSG). The note with it: for EC50: cells expressing T1R umami taste receptor, read-out: EC50 for enhancement of MSG binding. The method, then: Each of Compounds 101-183 was synthesized according to one of the general procedures set forth above in Examples 1. Thereafter, the compounds were tested in an in vitro cell-based assay having cells that express the T1R umami taste receptor. Dose-binding curves were recorded and the EC50 was determined for enhancement of MSG binding. Table 2 sets forth the calculated EC50 values for certain tested compounds as well as the MSG enhancement ratio at a particular concentration.

Where only a bound is given, the exact number is not on record here.

As for `CCOc1ccc(C(=O)N[C@H](CC(C)C)C(=O)OC)cc1` [Compound 109, Methyl (4-ethoxybenzoyl)-D-leucinate], the EC50 amounted to 0.7 µM.
As for `CCOC(=O)[C@H](NC(=O)/C=C/c1ccc(OC)cc1)C(C)C` [Compound 145, Ethyl (E)-(3-(4-methoxyphenyl)acryloyl)-D-valinate], the concentration for a half-maximal effect (EC50) is 1 µM.
`CCOC(=O)CC[C@H](NC(=O)c1ccc(C)c(C)n1)C(=O)OCC` [Compound 131, Diethyl (5,6-dimethylpicolinoyl)-L-glutamate]: the “MSG Enh. Ratio” value (compound at 50 μM) is 5.6 @.
Turning to `CCOC(=O)[C@H](Cc1ccc(OC)cc1)NC(=O)c1ccc(C)c(C)c1` [Compound 121, Ethyl (S)-2-(3,4-dimethylbenzamido)-3-(4-methoxyphenyl)propanoate], the EC50 came out at 12 µM. The “MSG Enh. Ratio” value (compound at 10 μM) is 7.0 @.
As to `COC(=O)[C@H](Cc1ccccc1)NC(=O)c1ccc(OC)c(OC)c1` [Compound 123, Methyl (3,4-dimethoxybenzoyl)-L-phenylalaninate], the 50% effective concentration (EC50) is greater than 50 µM. The “MSG Enh. Ratio” value (compound at 50 μM) is on record as 2.5 @.
Take `C=C(C)C1CC=C(C(=O)N[C@@H](Cc2ccccc2)C(=O)OC)CC1` (stereo partly drawn) [Compound 166, Methyl (4-(prop-1-en-2-yl)cyclohex-1-ene-1-carbonyl)-L-phenylalaninate]: the 50% effective concentration (EC50) was greater than 50 µM. The “MSG Enh. Ratio” value (compound at 50 μM) is listed as 4.6 @.
`CCOC(=O)CC[C@H](NC(=O)c1cn(C)c2ccccc12)C(=O)OCC` [Compound 134, Diethyl (1-methyl-1H-indole-3-carbonyl)-L-glutamate]: the EC50 was greater than 50 µM. Also, where the note is “compound at 50 μM”, the “MSG Enh. Ratio” value was 3.8 @.
For `COC(=O)[C@H](CC(C)C)NC(=O)c1ccc(C)cc1` [Compound 103, Methyl (4-methylbenzoyl)-L-leucinate], the EC50 was greater than 50 µM. Moreover, where the note is “compound at 50 μM”, the “MSG Enh. Ratio” value is on record as 3.4 @.
On to `CCOc1ccc(/C=C/C(=O)N[C@@H](Cc2ccccc2)C(=O)OC)cc1` [Compound 155, Methyl (E)-(3-(4-ethoxyphenyl)acryloyl)-L-phenylalaninate], for which the EC50 amounted to 1 µM. For the same compound, the “MSG Enh. Ratio” value (compound at 0.3 μM) is given as 8.1 @.
Consider `C/C=C/C=C/C(=O)N[C@H](C(=O)OCC)[C@@H](C)CC` [Compound 183, Ethyl ((2E,4E)-hexa-2,4-dienoyl)-L-isoleucinate], for which the half-maximal effective concentration (EC50) is greater than 50 µM. For the same compound, the “MSG Enh. Ratio” value (compound at 50 μM) is given as 2.8 @.
On to `COC(=O)[C@@H](CC(C)C)NC(=O)/C=C/c1ccc(OC)cc1` [Compound 144, Methyl (E)-(3-(4-methoxyphenyl)acryloyl)-D-leucinate], for which the half-maximal effective concentration (EC50) was determined as 0.1 µM.
In the case of `CCC/C=C/C(=O)N[C@@H](Cc1ccccc1)C(=O)OC` [Compound 176, Methyl (E)-hex-2-enoyl-L-phenylalaninate], under “compound at 50 μM”, the “MSG Enh. Ratio” value is 8.4 @.
As for `CC[C@H](C)[C@H](NC(=O)c1ccc(OC)c(OC)c1)C(=O)OC` [Compound 125, Methyl (3,4-dimethoxybenzoyl)-L-isoleucinate], the EC50 is greater than 50 µM. Besides, the “MSG Enh. Ratio” value (compound at 50 μM) is given as 2.7 @.
On to `CCOC(=O)[C@@H](NC(=O)/C=C/c1ccc2c(c1)OCO2)C(C)C` [Compound 159, Ethyl (E)-(3-(benzo[d][1,3]dioxol-5-yl)acryloyl)-L-valinate], for which the 50% effective concentration (EC50) was greater than 50 µM. Also, the “MSG Enh. Ratio” value (compound at 50 μM) is 5.8 @.
Regarding `C/C=C/C=C/C(=O)N[C@@H](Cc1ccccc1)C(=O)OCC` [Compound 180, Ethyl ((2E,4E)-hexa-2,4-dienoyl)-L-phenylalaninate], the half-maximal effective concentration (EC50) is greater than 50 µM. In addition, for the setting “compound at 50 μM”, the “MSG Enh. Ratio” value is on record as 3.4 @.
In the case of `CCOC(=O)[C@H](CC(C)C)NC(=O)/C=C/c1ccccc1` [Compound 135, Ethyl cinnamoyl-L-leucinate], the “MSG Enh. Ratio” value (compound at 50 μM) is on record as 5.3 @.
For `CCOC(=O)[C@H](CC(C)C)NC(=O)/C=C/C(C)C` [Compound 169, Ethyl (E)-(4-methylpent-2-enoyl)-L-leucinate], the EC50 turned out to be 12.9 µM. For the setting “compound at 3 μM”, the “MSG Enh. Ratio” value was 4.2 @.
In the case of `CCOC(=O)[C@H](CCSC)NC(=O)/C=C/C(C)C` [Compound 170, Ethyl (E)-(4-methylpent-2-enoyl)-L-methioninate], for the setting “compound at 10 μM”, the “MSG Enh. Ratio” value is given as 3.5 @.
In the case of `COC(=O)[C@H](CC(C)C)NC(=O)/C=C/c1ccc(OC)cc1` [Compound 149, Methyl (E)-(3-(4-methoxyphenyl)acryloyl)-L-leucinate], the 50% effective concentration (EC50) was determined as 11 µM. Moreover, the “MSG Enh. Ratio” value (compound at 3 μM) is listed as 4.5 @.
On to `COC(=O)[C@H](Cc1ccccc1)NC(=O)/C=C/c1ccc(OC)cc1` [Compound 146, Methyl (E)-(3-(4-methoxyphenyl)acryloyl)-L-phenylalaninate], for which the EC50 turned out to be 1 µM. Further, the “MSG Enh. Ratio” value (compound at 0.3 μM) was 6.4 @.
Regarding `CCCCc1ccc(C(=O)N[C@@H](Cc2ccccc2)C(=O)OC)nc1` [Compound 132, Methyl (5-butylpicolinoyl)-L-phenylalaninate], the concentration giving a half-maximal response (EC50) was greater than 50 µM. Besides, the “MSG Enh. Ratio” value (compound at 50 μM) was 2.6 @.
For `CCOC(=O)[C@@H](NC(=O)/C=C/c1ccccc1)C(C)C` [Compound 136, Ethyl cinnamoyl-L-valinate], the half-maximal effective concentration (EC50) came out at 23 µM. Where the note is “compound at 10 μM”, the “MSG Enh. Ratio” value is listed as 5.4 @.
With `CCOC(=O)[C@H](Cc1ccccc1)NC(=O)/C=C/c1ccc(OCC)cc1` [Compound 154, Ethyl (E)-(3-(4-ethoxyphenyl)acryloyl)-L-phenylalaninate], the EC50 amounted to 3 µM. In addition, the “MSG Enh. Ratio” value (compound at 3 μM) is 2.0 @.
For `C/C=C/C=C/C(=O)N[C@H](C(=O)OCC)C(C)C` [Compound 179, Ethyl ((2E,4E)-hexa-2,4-dienoyl)-L-valinate], the EC50 was greater than 50 µM. Further, the “MSG Enh. Ratio” value (compound at 50 μM) is recorded as 3.0 @.
Regarding `COC(=O)[C@H](Cc1ccccc1)NC(=O)c1ccc2c(c1)OCO2` [Compound 128, Methyl (benzo[d][1,3]dioxole-5-carbonyl)-L-phenylalaninate], the EC50 is greater than 50 µM. Further, under “compound at 10 μM”, the “MSG Enh. Ratio” value is recorded as 3.7 @.
Regarding `CCOC(=O)CC[C@H](NC(=O)/C=C/c1ccc(OC)cc1)C(=O)OCC` [Compound 151, Diethyl (E)-(3-(4-methoxyphenyl)acryloyl)-L-glutamate], the 50% effective concentration (EC50) turned out to be 2 µM. Also, the “MSG Enh. Ratio” value (compound at 3 μM) was 4.2 @.
As for `COC(=O)[C@H](Cc1ccccc1)NC(=O)c1ccc(OC)cc1` [Compound 105, Methyl (4-methoxybenzoyl)-L-phenylalaninate], the half-maximal effective concentration (EC50) is 36 µM. Under “compound at 50 μM”, the “MSG Enh. Ratio” value is 6.5 @.
For `CCOC(=O)[C@@H](NC(=O)/C=C/c1ccccc1OC)C(C)C` [Compound 143, Ethyl (E)-(3-(2-methoxyphenyl)acryloyl)-L-valinate], the EC50 turned out to be 15 µM. In addition, under “compound at 10 μM”, the “MSG Enh. Ratio” value is reported as 4.4 @.
As for `CCOC(=O)[C@@H](CC(C)C)NC(=O)/C=C/C(C)C` [Compound 171, Ethyl (E)-(4-methylpent-2-enoyl)-D-leucinate], the half-maximal effective concentration (EC50) is 3.34 µM. Further, the “MSG Enh. Ratio” value (compound at 3 μM) is 8.96 @.
In the case of `COC(=O)[C@H](Cc1ccccc1)NC(=O)c1ccccn1` [Compound 112, Methyl picolinoyl-L-phenylalaninate], the 50% effective concentration (EC50) was greater than 50 µM. The “MSG Enh. Ratio” value (compound at 50 μM) is given as 2.8 @.
For `CCOC(=O)CC[C@H](NC(=O)/C=C/c1ccc2c(c1)OCO2)C(=O)OCC` [Compound 161, Diethyl (E)-(3-(benzo[d][1,3]dioxol-5-yl)acryloyl)-L-glutamate], the 50% effective concentration (EC50) was greater than 20 µM. In addition, where the note is “compound at 10 μM”, the “MSG Enh. Ratio” value is on record as 2.9 @.
